Source: patent US9975907B2, “Pyrimidinones as PI3K inhibitors” (Incyte Corporation, priority 2009, dated 2018)

Assays:
PI3Kδ = PI3Kδ (Homo sapiens (Human), UniProt O00329); assay: PI3K Enzyme Assay A2 ([γ-33P]ATP filter plate), PI3Kδ; format: biochemical; conditions: column a, Examples 15, 30 and 44 used Assay A2, 1000 μM ATP
Method: Materials: Lipid kinase substrate, phosphoinositol-4,5-bisphosphate (PIP2), was purchased from Echelon Biosciences (Salt Lake City, Utah). PI3K isoforms α, β, δ and γ were purchased from Millipore (Bedford, Mass.). ATP, MgCh, DTT, EDTA, MOPS and CHAPS were purchased from Sigma-Aldrich (St. Louis, Mo.). The kinase reaction was conducted in clear-bottom 96-well plate from Thermo Fisher Scientific in a final volume of 24 μL. Inhibitors were first diluted serially in DMSO and added to the plate wells before the addition of other reaction components. The final concentration of DMSO in the assay was 0.5%. The PI3K assays were carried out at room temperature in 20 mM MOPS, pH 6.7, 10 mM MgCl2, 5 mM DTT and CHAPS 0.03%. The reaction mixture was prepared containing 50 μM PIP2, kinase and varying concentration of inhibitors. Reactions were initiated by the addition of ATP containing 2.2 μCi [γ-^33P]ATP to a final concentration of 1000 μM. […] Reactions were incubated for 180 min and terminated by the addition of 100 μL of 1 M potassium phosphate pH 8.0, 30 mM EDTA quench buffer. […] After the plate sealing, the radioactivity of the product was determined by scintillation counting on Topcount (Perkin-Elmer). […]

[1] = tested on: purified B cells from human PBMC; assay: B Cell Proliferation Assay; format: cell-based; conditions: anti-human IgM stimulated, three days, [3H]-thymidine incorporation
Method: To acquire B cells, human PBMC were isolated from the peripheral blood of normal, drug free donors by standard density gradient centrifugation on Ficoll-Hypague (GE Healthcare, Piscataway, N.J.) and incubated with anti-CD19 microbeads (Miltenyi Biotech, Auburn, Calif.). The B cells were then purified by positive immunosorting using an autoMacs (Miltenyi Biotech) according to the manufacturer's instruction.
The purified B cells (2×10^5/well/200 μL) were cultured in 96-well ultra-low binding plates (Corning, Corning, N.Y.) in RPMI1640, 10% FBS and goat F(ab′)2 anti-human IgM (10 μg/ml) (Invitrogen, Carlsbad, Calif.), in the presence of different amount of test compounds, for three days. [^3H]-thymidine (1 μCi/well) (PerkinElmer, Boston, Mass.) in PBS was then added to the B cell cultures for an additional 12 hrs before the incorporated radioactivity was separated by filtration with water through GF/B filters (Packard Bioscience, Meriden, Conn.) and measured by liquid scintillation counting with a TopCount (Packard Bioscience). Compounds having and IC^50 value of 10 μM or less are considered active. See Table 2 for data related to compounds of the invention.

[2] = tested on: Pfeiffer cell line (diffuse large B cell lymphoma); assay: Pfeiffer Cell Proliferation Assay; format: cell-based; conditions: Homo sapiens, Pfeiffer, 3-4 days, [3H]-thymidine incorporation
Method: Pfeiffer cell line (diffuse large B cell lymphoma) was purchased from ATCC (Manassas, Va.) and maintained in the culture medium recommended (RPMI and 10% FBS). To measure the anti-proliferation activity of the PI3Kδ submittals, the Pfeiffer cells were plated with the culture medium (2×10^3 cells/well/per 200 μl) into 96-well ultra-low binding plates (Corning, Corning, N.Y.), in the presence or absence of a concentration range of test compounds. After 3-4 days, [^3H]-thymidine (1 μCi/well) (PerkinElmer, Boston, Mass.) in PBS was then added to the cell culture for an additional 12 hrs before the incorporated radioactivity was separated by filtration with water through GF/B filters (Packard Bioscience, Meriden, Conn.) and measured by liquid scintillation counting with a TopCount (Packard Bioscience). See Table 3 for data related to compounds of the invention.

Measured: IC50

PI3Kδ, sequence (O00329 whole entry, species assumed, canonical isoform): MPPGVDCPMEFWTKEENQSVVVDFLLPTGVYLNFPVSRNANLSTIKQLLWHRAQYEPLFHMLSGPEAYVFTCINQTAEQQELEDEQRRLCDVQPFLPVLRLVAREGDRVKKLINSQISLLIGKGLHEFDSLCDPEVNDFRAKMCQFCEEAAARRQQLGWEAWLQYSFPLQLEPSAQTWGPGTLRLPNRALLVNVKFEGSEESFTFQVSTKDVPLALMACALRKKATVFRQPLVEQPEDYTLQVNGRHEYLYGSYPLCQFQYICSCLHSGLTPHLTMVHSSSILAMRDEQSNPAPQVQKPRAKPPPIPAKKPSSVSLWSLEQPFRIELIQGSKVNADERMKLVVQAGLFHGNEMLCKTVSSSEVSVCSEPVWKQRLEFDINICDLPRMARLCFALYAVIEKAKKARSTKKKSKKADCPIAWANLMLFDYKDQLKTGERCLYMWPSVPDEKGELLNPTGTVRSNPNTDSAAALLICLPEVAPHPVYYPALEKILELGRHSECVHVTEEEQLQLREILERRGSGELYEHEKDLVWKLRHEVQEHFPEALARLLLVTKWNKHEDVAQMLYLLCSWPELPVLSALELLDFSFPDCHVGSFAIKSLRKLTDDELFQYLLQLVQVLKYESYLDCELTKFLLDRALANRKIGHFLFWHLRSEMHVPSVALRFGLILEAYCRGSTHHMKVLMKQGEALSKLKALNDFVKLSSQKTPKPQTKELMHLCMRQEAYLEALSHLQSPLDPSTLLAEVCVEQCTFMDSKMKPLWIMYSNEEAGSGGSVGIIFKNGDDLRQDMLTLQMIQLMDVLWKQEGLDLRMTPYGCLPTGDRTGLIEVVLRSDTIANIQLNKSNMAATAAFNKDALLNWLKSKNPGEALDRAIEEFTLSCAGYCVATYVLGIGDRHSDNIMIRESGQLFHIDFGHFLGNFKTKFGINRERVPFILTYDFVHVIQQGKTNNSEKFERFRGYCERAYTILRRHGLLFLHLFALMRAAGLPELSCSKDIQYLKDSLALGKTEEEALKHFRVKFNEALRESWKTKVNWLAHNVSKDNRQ
PI3Kδ, sequence (P27986 whole entry partner, species assumed, canonical isoform): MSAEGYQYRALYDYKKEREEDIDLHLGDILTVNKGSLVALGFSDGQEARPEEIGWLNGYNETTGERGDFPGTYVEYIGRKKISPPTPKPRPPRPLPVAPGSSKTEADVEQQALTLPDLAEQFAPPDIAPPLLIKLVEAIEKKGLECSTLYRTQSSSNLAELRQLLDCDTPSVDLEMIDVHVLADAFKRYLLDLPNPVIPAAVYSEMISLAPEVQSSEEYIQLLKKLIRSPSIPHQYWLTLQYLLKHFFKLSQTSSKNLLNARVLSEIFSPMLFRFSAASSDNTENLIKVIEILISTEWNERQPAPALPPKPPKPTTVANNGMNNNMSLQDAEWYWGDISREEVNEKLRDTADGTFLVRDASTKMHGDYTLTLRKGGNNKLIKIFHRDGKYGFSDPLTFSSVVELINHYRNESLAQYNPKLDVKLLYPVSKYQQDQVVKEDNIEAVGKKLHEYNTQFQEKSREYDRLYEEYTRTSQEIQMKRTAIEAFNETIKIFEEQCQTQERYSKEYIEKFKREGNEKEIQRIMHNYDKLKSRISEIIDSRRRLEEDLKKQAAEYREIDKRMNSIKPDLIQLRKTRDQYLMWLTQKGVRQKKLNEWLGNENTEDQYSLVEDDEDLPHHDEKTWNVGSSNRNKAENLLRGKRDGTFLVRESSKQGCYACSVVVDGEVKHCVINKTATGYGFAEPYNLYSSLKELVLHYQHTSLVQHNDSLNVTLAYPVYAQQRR

Cc1csc2nc(C(C)Nc3ncnc4[nH]cnc34)c(-c3cc(F)cc(F)c3)c(=O)n12 (single isomer, unassigned) [Example 44, 6-(3,5-difluorophenyl)-3-methyl-7-[1-(9H-purin-6-ylamino)ethyl]-5H-[1,3]thiazolo[3,2-a]pyrimidin-5-one]
< 50 nM: all assays above
